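Tested at 5 concentrations; 48 h exposure; 96-well plates; endpoints linearly interpolated, else capped at highest concentration. TGI: total growth inhibition.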
Assays:
Test in all cases: NCI tumour cell line growth inhibition, 48 h
[1] = test system: MALME-3M melanoma
[2] = test system: HCT-116 colon
[3] = test system: HCT-15 colon
[4] = test system: OVCAR-5 ovarian
[5] = test system: MOLT-4 leukemia
[6] = test system: OVCAR-3 ovarian
[7] = test system: HOP-92 NSCLC
[8] = test system: MDA-MB-231 breast
[9] = test system: SNB-19 CNS
[10] = test system: UACC-257 melanoma
[11] = test system: A549 NSCLC
[12] = test system: SK-MEL-2 melanoma
[13] = test system: BT-549 breast
[14] = test system: SR leukemia
[15] = test system: RPMI-8226 leukemia
[16] = test system: ACHN renal
[17] = test system: MCF7 breast
[18] = test system: HOP-62 NSCLC
[19] = test system: 786-0 renal
[20] = test system: KM12 colon
[21] = test system: SF-268 CNS
[22] = test system: SF-539 CNS
[23] = test system: HCC-2998 colon
[24] = test system: U251 CNS
[25] = test system: OVCAR-4 ovarian
[26] = test system: COLO 205 colon
[27] = test system: CCRF-CEM leukemia
[28] = test system: HT29 colon
[29] = test system: UO-31 renal
[30] = test system: A498 renal
[31] = test system: SN12C renal
[32] = test system: SW-620 colon
[33] = test system: MDA-MB-435
[34] = test system: CAKI-1 renal
[35] = test system: EKVX NSCLC
[36] = test system: RXF 393 renal
[37] = test system: SNB-75 CNS
[38] = test system: SF-295 CNS
[39] = test system: NCI-H23 lung
[40] = test system: NCI-H522 lung
[41] = test system: HL-60(TB) leukemia
[42] = test system: LOX IMVI melanoma
[43] = test system: UACC-62 melanoma
[44] = test system: SK-OV-3 ovarian
[45] = test system: NCI-H460 lung
[46] = test system: IGROV1 ovarian
[47] = test system: TK-10 renal
[48] = test system: M14 melanoma
[49] = test system: HS 578T breast
[50] = test system: T-47D breast
[51] = test system: MDA-N
[52] = test system: OVCAR-8 ovarian
[53] = test system: SK-MEL-5 melanoma
[54] = test system: PC-3 prostate
[55] = test system: NCI/ADR-RES ovarian
[56] = test system: NCI-H226 lung
[57] = test system: K-562 leukemia
[58] = test system: DU-145 prostate
[59] = test system: SK-MEL-28 melanoma

Measured: TGI

C=CCN1C(N)=C(C#N)C(C#N)(C#N)C1CCC (stereo not given)
> 100 µM: [1] | [2] | [3] | [4] | [5] | [6] | [7] | [8] | [9] | [10] | [11] | [12] | [13] | [14] | [15] | [16] | [17] | [18] | [19] | [20] | [21] | [22] | [23] | [24] | [25] | [26] | [27] | [28] | [29] | [30] | [31] | [32] | [33] | [34] | [35] | [36] | [37] | [38] | [39] | [40] | [41] | [42] | [43] | [44] | [45] | [46] | [47] | [48] | [49] | [50] | [51] | [52] | [53] | [54] | [55] | [56] | [57] | [58]

O=C1OC(c2ccccc2)=N/C1=C\c1ccc(Cl)cc1
> 100 µM: [2] | [3] | [4] | [5] | [6] | [7] | [8] | [9] | [10] | [11] | [12] | [13] | [14] | [15] | [16] | [17] | [18] | [19] | [20] | [21] | [23] | [24] | [25] | [26] | [27] | [28] | [29] | [30] | [31] | [32] | [33] | [34] | [35] | [36] | [37] | [38] | [39] | [40] | [41] | [42] | [43] | [44] | [45] | [46] | [47] | [48] | [59] | [49] | [50] | [51] | [52] | [53] | [54] | [55] | [56] | [57] | [58]

Reference: PubChem BioAssay (NCI)
